Several values for one entry are separate records, joined by “and”; a condition that tells them apart may be missing. Identical values can stand only once. Inconclusive results and toxic doses are left out. Cut-off read from the data, not from the text of the source: active = T/C of 150% or more; inactive = T/C below 125%. Peptide text beside a SMILES is read from it. * marks the point of attachment. CH2Cl = ClC*
Test system: L1210 leukemia ip in BDF1 mice, survival T/C
Experiment: NCI In Vivo Anticancer Drug Screen. Data for tumor model L1210 Leukemia (intraperitoneal) in B6D2F1 (BDF1) mice
Conditions: endpoint: mean survival time, higher = longer survival
Outline: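 Tumor cells were implanted, animals were treated, and survival was followed. The result divides the treated measurement by the vehicle-control measurement.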

[1] = dose: 12.5 mg/kg/injection, schedule: Q04DX003 (ip), vehicle: saline
[2] = dose: 25.0 mg/kg/injection, schedule: Q04DX003 (ip), vehicle: saline
[3] = dose: 50.0 mg/kg/injection, schedule: Q01DX009 (ip), vehicle: saline
[4] = dose: 50.0 mg/kg/injection, schedule: Q04DX003 (ip), vehicle: saline
[5] = dose: 100.0 mg/kg/injection, schedule: Q01DX009 (ip), vehicle: saline
[6] = dose: 100.0 mg/kg/injection, schedule: Q04DX003 (ip), vehicle: saline
[7] = dose: 200.0 mg/kg/injection, schedule: Q01DX009 (ip), vehicle: saline
[8] = dose: 200.0 mg/kg/injection, schedule: Q04DX003 (ip), vehicle: saline
[9] = dose: 50.0 mg/kg/injection, schedule: Q01DX009 (ip), vehicle: saline with Tween-80
[10] = dose: 50.0 mg/kg/injection, schedule: Q04DX003 (ip), vehicle: saline with Tween-80
[11] = dose: 100.0 mg/kg/injection, schedule: Q04DX003 (ip), vehicle: saline with Tween-80
[12] = dose: 100.0 mg/kg/injection, schedule: Q04DX003 (ip), vehicle: Klucel (hydroxypropylcellulose) (HPC)
[13] = dose: 200.0 mg/kg/injection, schedule: Q04DX003 (ip), vehicle: Klucel (hydroxypropylcellulose) (HPC)
[14] = dose: 400.0 mg/kg/injection, schedule: Q04DX003 (ip), vehicle: Klucel (hydroxypropylcellulose) (HPC)

Measured: T/C

CS/C(N)=N/N
inactive: [1] 100 % of control | dose: 25.0 mg/kg/injection, schedule: Q01DX001 (ip), vehicle: saline 90 % of control | [2] 106 % of control | dose: 50.0 mg/kg/injection, schedule: Q01DX001 (ip), vehicle: saline 101 % of control

Nc1nc2nc[nH]c2c(N)c1Br (tested in a mixture with another compound)
inactive: [3] 95 % of control | [4] 96 % of control | dose: 100.0 mg/kg/injection, schedule: Q01DX001 (ip), vehicle: saline 100 % of control | [5] 92 % of control | [6] 94 % of control | dose: 200.0 mg/kg/injection, schedule: Q01DX001 (ip), vehicle: saline 97 % of control | [7] 114 % of control | [8] 105 % of control

CC1(C)C(=O)NC(=O)C1(C)C
inactive: dose: 1.56 mg/kg/injection, schedule: Q03HX024 (ip), vehicle: saline 106 % of control | dose: 3.12 mg/kg/injection, schedule: Q03HX024 (ip), vehicle: saline 100 % of control | dose: 3.12 mg/kg/injection, schedule: Q04DX003 (ip), vehicle: saline 100 % of control | dose: 4.12 mg/kg/injection, schedule: Q01DX009 (ip), vehicle: saline 100 % of control | dose: 6.25 mg/kg/injection, schedule: Q01DX009 (ip), vehicle: saline 106 % of control | dose: 6.25 mg/kg/injection, schedule: Q03HX024 (ip), vehicle: saline 101 % of control | dose: 6.25 mg/kg/injection, schedule: Q04DX003 (ip), vehicle: saline 104 % of control | dose: 8.25 mg/kg/injection, schedule: Q01DX009 (ip), vehicle: saline 100 % of control | dose: 12.5 mg/kg/injection, schedule: Q01DX009 (ip), vehicle: saline 102 % of control | dose: 12.5 mg/kg/injection, schedule: Q03HX024 (ip), vehicle: saline 100 % of control | [1] 104 % of control and 108 % of control | dose: 16.5 mg/kg/injection, schedule: Q01DX009 (ip), vehicle: saline 92 % of control | dose: 18.75 mg/kg/injection, schedule: Q01DX001 (ip), vehicle: saline 105 % of control | dose: 25.0 mg/kg/injection, schedule: Q01DX009 (ip), vehicle: saline 106 % of control | [2] 102 % of control and 105 % of control | dose: 33.0 mg/kg/injection, schedule: Q01DX009 (ip), vehicle: saline 105 % of control | dose: 37.5 mg/kg/injection, schedule: Q01DX001 (ip), vehicle: saline 108 % of control | [3] 102 % of control | [4] 100 % of control and 102 % of control | dose: 66.0 mg/kg/injection, schedule: Q01DX009 (ip), vehicle: saline 90 % of control | dose: 75.0 mg/kg/injection, schedule: Q01DX001 (ip), vehicle: saline 108 % of control | [6] 94 % of control | dose: 150.0 mg/kg/injection, schedule: Q01DX001 (ip), vehicle: saline 103 % of control

CC(=O)NC(CC(C)C)C(=O)NC(Cc1ccccc1)C(=O)CCl (stereo not drawn) (Ac-Leu-Phe-CH2Cl; configuration not given here)
inactive: dose: 100.0 mg/kg/injection, schedule: Q04DX002 (ip), vehicle: Klucel (hydroxypropylcellulose) (HPC) 94 % of control | dose: 200.0 mg/kg/injection, schedule: Q04DX002 (ip), vehicle: Klucel (hydroxypropylcellulose) (HPC) 98 % of control | dose: 400.0 mg/kg/injection, schedule: Q04DX002 (ip), vehicle: Klucel (hydroxypropylcellulose) (HPC) 102 % of control

COc1cc(OC)c(NC(=O)Nc2cccc(Cl)c2C)cc1Cl
inactive: dose: 12.5 mg/kg/injection, schedule: Q01DX009 (ip), vehicle: saline with Tween-80 97 % of control and 92 % of control | dose: 25.0 mg/kg/injection, schedule: Q01DX009 (ip), vehicle: saline with Tween-80 94 % of control and 95 % of control | dose: 25.0 mg/kg/injection, schedule: Q04DX003 (ip), vehicle: saline with Tween-80 89 % of control | [9] 95 % of control and 87 % of control | [10] 97 % of control | dose: 100.0 mg/kg/injection, schedule: Q04DX002 (ip), vehicle: saline with Tween-80 86 % of control and 91 % of control | [11] 92 % of control | dose: 200.0 mg/kg/injection, schedule: Q01DX009 (ip), vehicle: saline with Tween-80 89 % of control and 91 % of control | dose: 200.0 mg/kg/injection, schedule: Q04DX002 (ip), vehicle: saline with Tween-80 87 % of control and 90 % of control | dose: 400.0 mg/kg/injection, schedule: Q01DX009 (ip), vehicle: saline with Tween-80 96 % of control and 91 % of control | dose: 400.0 mg/kg/injection, schedule: Q04DX002 (ip), vehicle: saline with Tween-80 104 % of control and 91 % of control

O=C(Oc1ccc(Cl)cc1)c1ccccc1
inactive: dose: 100.0 mg/kg/injection, schedule: Q01DX009 (ip), vehicle: Klucel (hydroxypropylcellulose) (HPC) 95 % of control | [12] 103 % of control | dose: 200.0 mg/kg/injection, schedule: Q01DX009 (ip), vehicle: Klucel (hydroxypropylcellulose) (HPC) 101 % of control | [13] 105 % of control | dose: 400.0 mg/kg/injection, schedule: Q01DX009 (ip), vehicle: Klucel (hydroxypropylcellulose) (HPC) 101 % of control | [14] 92 % of control

O=C1OC2(Cc3ccccc31)c1ccccc1-c1ccccc12
inactive: dose: 25.0 mg/kg/injection, schedule: Q04DX003 (ip), vehicle: Klucel (hydroxypropylcellulose) (HPC) 91 % of control | dose: 50.0 mg/kg/injection, schedule: Q04DX003 (ip), vehicle: Klucel (hydroxypropylcellulose) (HPC) 90 % of control | [12] 88 % of control | [13] 88 % of control | [14] 90 % of control

COc1cc(C=NCCN=Cc2cc(OC)c(OC)c(OC)c2)cc(OC)c1OC
inactive: [9] 94 % of control | [10] 94 % of control | dose: 100.0 mg/kg/injection, schedule: Q01DX009 (ip), vehicle: saline with Tween-80 100 % of control | [11] 98 % of control | dose: 200.0 mg/kg/injection, schedule: Q04DX003 (ip), vehicle: saline with Tween-80 105 % of control

CC1CCCC(C)N1C1=NCCO1 (centres undefined)
inactive: dose: 5.0 mg/kg/injection, schedule: Q01DX009 (ip), vehicle: saline with Tween-80 95 % of control | dose: 10.0 mg/kg/injection, schedule: Q01DX009 (ip), vehicle: saline with Tween-80 97 % of control | dose: 20.0 mg/kg/injection, schedule: Q01DX009 (ip), vehicle: saline with Tween-80 95 % of control

O=C1c2ccccc2C(=O)N1c1ccccc1-c1ccccc1
inactive: dose: 25.0 mg/kg/injection, schedule: Q01DX001 (ip), vehicle: Klucel (hydroxypropylcellulose) (HPC) 95 % of control | dose: 50.0 mg/kg/injection, schedule: Q01DX001 (ip), vehicle: Klucel (hydroxypropylcellulose) (HPC) 103 % of control | dose: 100.0 mg/kg/injection, schedule: Q01DX001 (ip), vehicle: Klucel (hydroxypropylcellulose) (HPC) 101 % of control and 121 % of control | dose: 200.0 mg/kg/injection, schedule: Q01DX001 (ip), vehicle: Klucel (hydroxypropylcellulose) (HPC) 93 % of control and 97 % of control | dose: 400.0 mg/kg/injection, schedule: Q01DX001 (ip), vehicle: Klucel (hydroxypropylcellulose) (HPC) 89 % of control

Cc1cc(C)c(C)[nH]1
inactive: dose: 6.25 mg/kg/injection, schedule: Q01DX009 (ip), vehicle: water 104 % of control | dose: 12.5 mg/kg/injection, schedule: Q01DX009 (ip), vehicle: water 101 % of control | dose: 25.0 mg/kg/injection, schedule: Q01DX009 (ip), vehicle: water 114 % of control | dose: 50.0 mg/kg/injection, schedule: Q01DX009 (ip), vehicle: water 105 % of control and 121 % of control

CCCCc1cc(O)c2c(c1O)C(=O)c1ccccc1C2=O
inactive: dose: 100.0 mg/kg/injection, schedule: Q01DX001 (ip), vehicle: saline sonified 91 % of control | dose: 100.0 mg/kg/injection, schedule: Q01DX009 (ip), vehicle: saline sonified 97 % of control | dose: 200.0 mg/kg/injection, schedule: Q01DX001 (ip), vehicle: saline sonified 86 % of control | dose: 200.0 mg/kg/injection, schedule: Q01DX009 (ip), vehicle: saline sonified 102 % of control | dose: 400.0 mg/kg/injection, schedule: Q01DX001 (ip), vehicle: saline sonified 94 % of control | dose: 400.0 mg/kg/injection, schedule: Q01DX009 (ip), vehicle: saline sonified 96 % of control

ClCc1nc2nc(Cl)c(Cl)nc2[nH]1
inactive: [3] 88 % of control | [5] 102 % of control | [6] 101 % of control | [7] 102 % of control | [8] 101 % of control | dose: 400.0 mg/kg/injection, schedule: Q04DX003 (ip), vehicle: saline 98 % of control
